Measurements: US20140005163A1 (NOVARTIS AG, priority 2010, published 2014)

Legend:
PI3K beta = biological target: T1, PI3K beta (Homo sapiens, UniProt P42338); experiment: PI3K beta kinase assay (Kinase-Glo luminescence); format: biochemical
T1 construct: for the full-length p110-b subunit are generated and fused by overlapping PCR; p85(iSH2) fusion partner (see partner chain) (N); His tag (C); made in house; host or cells: baculovirus; Tn5 (Trichoplusia ni) or TiniPro insect cells
Procedure, shortened: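 Full-length p110β with a Gly-linked p85 iSH2 and a C-terminal His tag (BV949, 25 nM) was incubated with 10 μg/mL phosphatidylinositol and 1 μM ATP in 10 mM Tris pH 7.5, 3 mM MgCl2, 50 mM NaCl, 0.05% CHAPS, 1 mM DTT for 60 min at room temperature. Residual ATP was read by Kinase-Glo luminescence.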

[1] = test system: PKB Ser473 phosphorylation in Rat1-myr-HA-p110 beta cells; experiment: Reverse protein array assay, PKB Ser473 phosphorylation in Rat1-myr-p110 beta cells; format: cell-based; conditions: 0.5 h, pAkt Ser473, 30 minutes incubation, read-out: p-PKB IC50
Procedure, shortened: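 Cells: Rat1-myr-HA-p110 alpha/beta/delta, seeded ≥20 h. Lysis on ice 10 min; reverse-phase protein array, 4 lysate dilutions; fluorescence read, relative intensity.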

PI3K delta = biological target: T2, PI3K delta (Homo sapiens, UniProt O00329); experiment: PI3K delta kinase assay (Kinase-Glo luminescence); format: biochemical
T2 construct: for the full-length p110-d subunit are generated and fused by overlapping PCR; p85(iSH2) fusion partner (see partner chain) (N); His tag (C); made in house; host or cells: baculovirus; Tn5 (Trichoplusia ni) or TiniPro insect cells
Procedure, shortened: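 Lipid kinase activity of a His-tagged p110δ full-length/p85 iSH2 fusion (10 nM) toward bovine liver phosphatidylinositol (10 μg/mL) at 1 μM ATP, pH 7.5, 60 min, room temperature. ATP consumption is quantified by luciferase-based luminescence. Four-parameter logistic fitting gives IC50.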

T1 sequence (P42338 with tags, fused parts or gaps limits assumed): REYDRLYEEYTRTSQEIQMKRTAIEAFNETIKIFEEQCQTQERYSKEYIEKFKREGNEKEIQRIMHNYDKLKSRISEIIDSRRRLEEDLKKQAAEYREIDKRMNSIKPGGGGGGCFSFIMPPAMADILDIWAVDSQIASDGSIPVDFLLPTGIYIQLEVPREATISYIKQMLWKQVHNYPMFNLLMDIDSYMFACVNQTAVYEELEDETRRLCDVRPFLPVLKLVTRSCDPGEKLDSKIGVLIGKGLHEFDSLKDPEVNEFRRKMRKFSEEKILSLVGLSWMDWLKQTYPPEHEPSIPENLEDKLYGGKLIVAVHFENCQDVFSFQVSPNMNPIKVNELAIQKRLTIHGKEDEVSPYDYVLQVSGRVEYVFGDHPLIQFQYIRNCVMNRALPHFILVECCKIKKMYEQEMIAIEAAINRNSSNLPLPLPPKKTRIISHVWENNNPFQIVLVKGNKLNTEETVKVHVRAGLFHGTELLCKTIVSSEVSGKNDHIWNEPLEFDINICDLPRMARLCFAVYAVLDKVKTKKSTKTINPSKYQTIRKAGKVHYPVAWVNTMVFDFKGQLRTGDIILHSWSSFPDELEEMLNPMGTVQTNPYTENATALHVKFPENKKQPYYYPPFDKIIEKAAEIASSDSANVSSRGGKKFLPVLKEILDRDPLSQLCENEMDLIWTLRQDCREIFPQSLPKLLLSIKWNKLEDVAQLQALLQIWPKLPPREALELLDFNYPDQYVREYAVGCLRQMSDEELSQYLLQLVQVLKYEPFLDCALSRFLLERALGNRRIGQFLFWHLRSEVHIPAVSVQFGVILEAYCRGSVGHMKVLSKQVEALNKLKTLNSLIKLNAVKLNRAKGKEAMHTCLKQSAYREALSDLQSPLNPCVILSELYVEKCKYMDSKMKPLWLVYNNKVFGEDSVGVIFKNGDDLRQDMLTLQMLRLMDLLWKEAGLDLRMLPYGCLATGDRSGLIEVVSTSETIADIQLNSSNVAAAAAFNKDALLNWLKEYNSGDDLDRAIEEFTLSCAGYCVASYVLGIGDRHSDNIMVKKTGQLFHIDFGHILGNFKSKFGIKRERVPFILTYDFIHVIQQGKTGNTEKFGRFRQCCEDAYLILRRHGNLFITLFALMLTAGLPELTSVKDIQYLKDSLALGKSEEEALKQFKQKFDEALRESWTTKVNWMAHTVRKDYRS
T2 sequence (O00329 with tags, fused parts or gaps limits assumed): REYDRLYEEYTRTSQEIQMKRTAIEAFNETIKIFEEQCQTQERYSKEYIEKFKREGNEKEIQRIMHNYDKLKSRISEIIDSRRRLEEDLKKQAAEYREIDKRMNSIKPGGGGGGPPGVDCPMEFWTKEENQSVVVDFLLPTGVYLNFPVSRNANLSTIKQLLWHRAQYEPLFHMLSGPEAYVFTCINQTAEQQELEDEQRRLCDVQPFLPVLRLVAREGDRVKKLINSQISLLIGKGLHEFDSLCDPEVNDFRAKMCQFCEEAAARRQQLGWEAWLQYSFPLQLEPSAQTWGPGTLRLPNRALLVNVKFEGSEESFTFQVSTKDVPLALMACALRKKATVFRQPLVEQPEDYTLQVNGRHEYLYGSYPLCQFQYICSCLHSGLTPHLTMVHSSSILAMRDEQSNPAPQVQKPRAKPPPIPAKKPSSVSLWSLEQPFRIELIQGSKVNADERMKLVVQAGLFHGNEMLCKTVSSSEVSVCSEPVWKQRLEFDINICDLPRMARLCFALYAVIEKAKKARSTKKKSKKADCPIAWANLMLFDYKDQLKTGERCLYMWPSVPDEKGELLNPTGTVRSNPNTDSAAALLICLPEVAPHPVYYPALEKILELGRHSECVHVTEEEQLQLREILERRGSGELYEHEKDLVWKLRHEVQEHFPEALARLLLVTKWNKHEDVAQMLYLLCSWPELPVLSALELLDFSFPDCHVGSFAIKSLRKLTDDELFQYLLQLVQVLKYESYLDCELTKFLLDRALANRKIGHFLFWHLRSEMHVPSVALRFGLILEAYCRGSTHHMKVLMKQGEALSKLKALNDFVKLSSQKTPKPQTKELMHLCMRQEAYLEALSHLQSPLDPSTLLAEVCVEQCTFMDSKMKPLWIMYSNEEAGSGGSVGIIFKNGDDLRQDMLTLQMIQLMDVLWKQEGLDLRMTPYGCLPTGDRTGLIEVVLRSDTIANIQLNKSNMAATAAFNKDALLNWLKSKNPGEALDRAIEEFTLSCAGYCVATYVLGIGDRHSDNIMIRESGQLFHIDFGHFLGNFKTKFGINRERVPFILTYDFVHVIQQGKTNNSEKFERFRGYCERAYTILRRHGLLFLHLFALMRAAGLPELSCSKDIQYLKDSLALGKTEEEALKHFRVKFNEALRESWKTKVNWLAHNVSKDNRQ

Row | SMILES | IC50 (PI3K beta) | IC50 [1] | IC50 (PI3K delta)
1 | COc1ccc(-c2ccc3ncc4c(c3c2)n(-c2cc(C)nn2C)c(=O)n4C)cc1OC [Example 1.4, 8-(3,4-Dimethoxy-phenyl)-1-(2,5-dimethyl-2H-pyrazol-3-yl)-3-methyl-1,3-dihydro-imidazo[4,5-c]quinolin-2-one] | 378 nM | 157 nM | 83 nM
2 | Cn1cc(-n2c(=O)n(C)c3cnc4ccc(-c5ccc(CO)nc5)cc4c32)c(Cl)n1 [Example 16.5, 1-(3-chloro-1-methyl-1H-pyrazol-4-yl)-8-(6-hydroxymethyl-pyridin-3-yl)-3-methyl-1,3-dihydro-imidazo[4,5-c]quinolin-2-one] | 28 nM | 10 nM | 3 nM
3 | Cn1nccc1-n1c(=O)n(C)c2cnc3ccc(-c4ccc(NCCO)nc4)cc3c21 [Example 21.1, 8-[6-(2-Hydroxy-ethylamino)-pyridin-3-yl]-3-methyl-1-(2-methyl-2H-pyrazol-3-yl)-1,3-dihydro-imidazo[4,5-c]quinolin-2-one] | 946 nM | 173 nM | 116 nM
4 | CCn1cc(-n2c(=O)n(C)c3cnc4ccc(-c5cncc(N)c5)cc4c32)c(C)n1 [Example 45.2, 8-(5-Amino-pyridin-3-yl)-1-(1-ethyl-3-methyl-1H-pyrazol-4-yl)-3-methyl-1,3-dihydro-imidazo[4,5-c]quinolin-2-one] | 29 nM | 36 nM | 4 nM
5 | Cc1nn(C(C)C)cc1-n1c(=O)n(C)c2cnc3ccc(-c4cncc(N)c4)cc3c21 [Example 45.3, 8-(5-Amino-pyridin-3-yl)-1-(1-isopropyl-3-methyl-1H-pyrazol-4-yl)-3-methyl-1,3-dihydro-imidazo[4,5-c]quinolin-2-one] | 169 nM | 36 nM | 10 nM
6 | Cc1cnn(C)c1-n1c(=O)n(C)c2cnc3ccc(-c4cncc(OC(C)C)c4)cc3c21 [Example 58.3, 1-(2,4-Dimethyl-2H-pyrazol-3-yl)-8-(5-isopropoxy-pyridin-3-yl)-3-methyl-1,3-dihydro-imidazo[4,5-c]quinolin-2-one] | 203 nM | 281 nM | 118 nM
7 | COCCOc1cncc(-c2ccc3ncc4c(c3c2)n(-c2cn(C)nc2Cl)c(=O)n4C)c1 [Example 59.2, 1-(3-Chloro-1-methyl-1H-pyrazol-4-yl)-8-[5-(2-methoxy-ethoxy)-pyridin-3-yl]-3-methyl-1,3-dihydro-imidazo[4,5-c]quinolin-2-one] | 19 nM | 61 nM | 9 nM
8 | COc1ncc(-c2ccc3ncc4c(c3c2)n(-c2cn(C)nc2Cl)c(=O)n4C)cc1N [Example 89, 8-(5-Amino-6-methoxy-pyridin-3-yl)-1-(3-chloro-1-methyl-1H-pyrazol-4-yl)-3-methyl-1,3-dihydro-imidazo[4,5-c]quinolin-2-one] | 23 nM | < 5 nM | 9 nM
9 | Cc1nn(C)cc1-n1c(=O)n(C)c2cnc3ccc(-c4ccnc(OC(C)C)c4)cc3c21 [Example 92, 1-(1,3-Dimethyl-1H-pyrazol-4-yl)-8-(2-isopropoxy-pyridin-4-yl)-3-methyl-1,3-dihydro-imidazo[4,5-c]quinolin-2-one] | 246 nM | 715 nM | 127 nM
10 | CCN(C)c1ccc(-c2ccc3ncc4c(c3c2)n(-c2cn(C)nc2C)c(=O)n4C)cn1 [Example 98.1, 1-(1,3-Dimethyl-1H-pyrazol-4-yl)-8-[6-(ethyl-methyl-amino)-pyridin-3-yl]-3-methyl-1,3-dihydro-imidazo[4,5-c]quinolin-2-one] | 407 nM | 13 nM | 48 nM
11 | Cc1nn(C)cc1-n1c(=O)n(C)c2cnc3ccc(-c4ccc(N5CCNCC5)nc4)cc3c21 [Example 126, 1-(1,3-Dimethyl-1H-pyrazol-4-yl)-3-methyl-8-(6-piperazin-1-yl-pyridin-3-yl)-1,3-dihydro-imidazo[4,5-c]quinolin-2-one] | 802 nM | 265 nM | 102 nM
12 | CO[C@@H]1CCN(c2ccc(-c3ccc4ncc5c(c4c3)n(-c3cn(C)nc3C)c(=O)n5C)cn2)C1 [Example 213.1, 1-(1,3-Dimethyl-1H-pyrazol-4-yl)-8-[6-((R)-3-methoxy-pyrrolidin-1-yl)-pyridin-3-yl]-3-methyl-1,3-dihydro-imidazo[4,5-c]quinolin-2-one] | – | 342 nM | 691 nM
13 | Cc1nn(CC(=O)N2CCC2)cc1-n1c(=O)n(C)c2cnc3ccc(-c4cnc(N5CCCC5)nc4)cc3c21 [Example 247.2, 1-[1-(2-Azetidin-1-yl-2-oxo-ethyl)-3-methyl-1H-pyrazol-4-yl]-3-methyl-8-(2-pyrrolidin-1-yl-pyrimidin-5-yl)-1,3-dihydro-imidazo[4,5-c]quinolin-2-one] | – | 87 nM | 794 nM

The next lines start with the values.

Row | IC50 (PI3K beta) | IC50 [1] | IC50 (PI3K delta) | SMILES
14 | 515 nM | – | 161 nM | Cc1nn(C)c(C)c1-n1c(=O)n(C)c2cnc3ccc(-c4ccc(CO)nc4)cc3c21 [Example 16.4, 8-(6-Hydroxymethyl-pyridin-3-yl)-3-methyl-1-(1,3,5-trimethyl-1H-pyrazol-4-yl)-1,3-dihydro-imidazo[4,5-c]quinolin-2-one]
15 | – | 43 nM | 175 nM | CCOc1ncc(-c2ccc3ncc4c(c3c2)n(-c2cn(C)nc2C)c(=O)n4C)cc1NC(C)=O [Example 65, N-{5-[1-(1,3-Dimethyl-1H-pyrazol-4-yl)-3-methyl-2-oxo-2,3-dihydro-1H-imidazo[4,5-c]quinolin-8-yl]-2-ethoxy-pyridin-3-yl}-acetamide]
16 | 477 nM | 766 nM | 46 nM | CCOc1cc(-c2ccc3ncc4c(c3c2)n(-c2c(C)nn(CC(=O)N(C)C)c2C)c(=O)n4C)cnc1C [Example 85.3, 2-{4-[8-(5-Ethoxy-6-methyl-pyridin-3-yl)-3-methyl-2-oxo-2,3-dihydro-imidazo[4,5-c]quinolin-1-yl]-3,5-dimethyl-pyrazol-1-yl}-N,N-dimethyl-acetamide]
17 | 12 nM | < 5 nM | 6 nM | CCNc1cc(-c2ccc3ncc4c(c3c2)n(-c2cn(CC)nc2C)c(=O)n4C)cnc1C [Example 87.3, 8-(5-Ethylamino-6-methyl-pyridin-3-yl)-1-(1-ethyl-3-methyl-1H-pyrazol-4-yl)-3-methyl-1,3-dihydro-imidazo[4,5-c]quinolin-2-one]
18 | 34 nM | 16 nM | 9 nM | Cc1nn(C)cc1-n1c(=O)n(C)c2cnc3ccc(-c4cnc5ccn(C)c5c4)cc3c21 [Example 129, 1-(1,3-Dimethyl-1H-pyrazol-4-yl)-3-methyl-8-(1-methyl-1H-pyrrolo[3,2-b]pyridin-6-yl)-1,3-dihydro-imidazo[4,5-c]quinolin-2-one]
19 | 407 nM | 13 nM | 9 nM | CNc1ncc(-c2ccc3ncc4c(c3c2)n(-c2cn(C(C)C)nc2C)c(=O)n4C)cc1F [Example 141.3, 8-(5-Fluoro-6-methylamino-pyridin-3-yl)-1-(1-isopropyl-3-methyl-1H-pyrazol-4-yl)-3-methyl-1,3-dihydro-imidazo[4,5-c]quinolin-2-one]
20 | 385 nM | 19 nM | 18 nM | Cc1nn(C(C)C)cc1-n1c(=O)n(C)c2cnc3ccc(-c4cnc(N)c(F)c4)cc3c21 [Example 142.3, 8-(6-Amino-5-fluoro-pyridin-3-yl)-1-(1-isopropyl-3-methyl-1H-pyrazol-4-yl)-3-methyl-1,3-dihydro-imidazo[4,5-c]quinolin-2-one]
21 | 80 nM | 49 nM | 13 nM | CNc1ncc(-c2ccc3ncc4c(c3c2)n(-c2c(C)nn(C)c2C)c(=O)n4C)cc1C(F)(F)F [Example 144.1, 3-Methyl-8-(6-methylamino-5-trifluoromethyl-pyridin-3-yl)-1-(1,3,5-trimethyl-1H-pyrazol-4-yl)-1,3-dihydro-imidazo[4,5-c]quinolin-2-one]
22 | 51 nM | 139 nM | 21 nM | Cc1nn(C)c(C)c1-n1c(=O)n(C)c2cnc3ccc(-c4cnc(N)c(Cl)c4)cc3c21 [Example 148.1, 8-(6-Amino-5-chloro-pyridin-3-yl)-3-methyl-1-(1,3,5-trimethyl-1H-pyrazol-4-yl)-1,3-dihydro-imidazo[4,5-c]quinolin-2-one]
23 | 35 nM | 6 nM | 39 nM | Cc1nn(C)cc1-n1c(=O)n(C)c2cnc3ccc(-c4cnc(N)c(Cl)c4)cc3c21 [Example 148.2, 8-(6-Amino-5-chloro-pyridin-3-yl)-1-(1,3-dimethyl-1H-pyrazol-4-yl)-3-methyl-1,3-dihydro-imidazo[4,5-c]quinolin-2-one]
24 | – | 108 nM | 160 nM | CCOCc1ncc(-c2ccc3ncc4c(c3c2)n(-c2cn(C)nc2C)c(=O)n4C)cc1OC [Example 196.2, 1-(1,3-Dimethyl-1H-pyrazol-4-yl)-8-(6-ethoxymethyl-5-methoxy-pyridin-3-yl)-3-methyl-1,3-dihydro-imidazo[4,5-c]quinolin-2-one]
